Values quoted from earlier work, collected in PubChem BioAssay AID1259409 (Chemical Carcinogenesis Research Information System (CCRIS), 2018).

Tested on: rodent chemically induced tumor inhibition, incidence and multiplicity
Assay: CCRIS tumor inhibitor studies

C/C(=C\c1ccc(C(=O)O)cc1)c1ccc2c(c1)C(C)(C)CCS2
tumour outcome (control, treated, inhibition, significance) (Carcinogen: 7,12-DIMETHYLBENZ[A]ANTHRACENE, 57-97-6, Dose [Inhibitor]: 1.7 NMOL IN 0.2 ML ACETONE 1 HR PRIOR TO EACH PROMOTER DOSE FOR 12 WK (STUDY DURATION: 14 WK), Route [Inhibitor]: DERMAL, Species: MOUSE, Strain/Sex: SENCAR/FEMALE, Target Tissue: Type of Lesion: SKIN: PAPILLOMA, Dose [Carcinogen]: 200 NMOL IN 0.2 ML ACETONE ONCE, Promoter: 12-O-TETRADECANOYLPHORBOL-13-ACETATE, 16561-29-8): 100%, 100%, 0%, not calculated | tumour outcome (control, treated, inhibition, significance) (Carcinogen: 7,12-DIMETHYLBENZ[A]ANTHRACENE, 57-97-6, Dose [Inhibitor]: 1.7 NMOL IN 0.2 ML ACETONE 1 HR PRIOR TO EACH PROMOTER DOSE FOR 20 WK (STUDY DURATION: 22 WK), Route [Inhibitor]: DERMAL, Species: MOUSE, Strain/Sex: CD-1/FEMALE, Target Tissue: Type of Lesion: SKIN: PAPILLOMA, Dose [Carcinogen]: 200 NMOL IN 0.2 ML ACETONE ONCE, Promoter: 12-O-TETRADECANOYLPHORBOL-13-ACETATE, 16561-29-8): 94%, 93%, 1%, not calculated | tumour outcome (control, treated, inhibition, significance) (Carcinogen: 7,12-DIMETHYLBENZ[A]ANTHRACENE, 57-97-6, Dose [Inhibitor]: 17 NMOL IN 0.2 ML ACETONE 1 HR PRIOR TO EACH PROMOTER DOSE FOR 12 WK (STUDY DURATION: 14 WK), Route [Inhibitor]: DERMAL, Species: MOUSE, Strain/Sex: SENCAR/FEMALE, Target Tissue: Type of Lesion: SKIN: PAPILLOMA, Dose [Carcinogen]: 200 NMOL IN 0.2 ML ACETONE ONCE, Promoter: 12-O-TETRADECANOYLPHORBOL-13-ACETATE, 16561-29-8): 100%, 90%, 10%, not calculated | tumour outcome (control, treated, inhibition, significance) (Carcinogen: 7,12-DIMETHYLBENZ[A]ANTHRACENE, 57-97-6, Dose [Inhibitor]: 17 NMOL IN 0.2 ML ACETONE 1 HR PRIOR TO EACH PROMOTER DOSE FOR 20 WK (STUDY DURATION: 22 WK), Route [Inhibitor]: DERMAL, Species: MOUSE, Strain/Sex: CD-1/FEMALE, Target Tissue: Type of Lesion: SKIN: PAPILLOMA, Dose [Carcinogen]: 200 NMOL IN 0.2 ML ACETONE ONCE, Promoter: 12-O-TETRADECANOYLPHORBOL-13-ACETATE, 16561-29-8): 94%, 38%, 60%, not calculated | tumour outcome (control, treated, inhibition, significance) (Carcinogen: 7,12-DIMETHYLBENZ[A]ANTHRACENE, 57-97-6, Dose [Inhibitor]: 170 NMOL IN 0.2 ML ACETONE 1 HR PRIOR TO EACH PROMOTER DOSE FOR 12 WK (STUDY DURATION: 14 WK), Route [Inhibitor]: DERMAL, Species: MOUSE, Strain/Sex: SENCAR/FEMALE, Target Tissue: Type of Lesion: SKIN: PAPILLOMA, Dose [Carcinogen]: 200 NMOL IN 0.2 ML ACETONE ONCE, Promoter: 12-O-TETRADECANOYLPHORBOL-13-ACETATE, 16561-29-8): 100%, 38%, 62%, not calculated | tumour outcome (control, treated, inhibition, significance) (Carcinogen: 7,12-DIMETHYLBENZ[A]ANTHRACENE, 57-97-6, Dose [Inhibitor]: 170 NMOL IN 0.2 ML ACETONE 1 HR PRIOR TO EACH PROMOTER DOSE FOR 20 WK (STUDY DURATION: 22 WK), Route [Inhibitor]: DERMAL, Species: MOUSE, Strain/Sex: CD-1/FEMALE, Target Tissue: Type of Lesion: SKIN: PAPILLOMA, Dose [Carcinogen]: 200 NMOL IN 0.2 ML ACETONE ONCE, Promoter: 12-O-TETRADECANOYLPHORBOL-13-ACETATE, 16561-29-8): 94%, 24%, 74%, not calculated

CCCCCCCCCCCCCCCCCCOC1=C(O)C([C@@H](O)CO)OC1=O (some centres undefined)
tumour outcome (control, treated, inhibition, significance) (Carcinogen: NONE USED, Dose [Inhibitor]: 0, 0.1% IN DIET FOR DURATION OF STUDY (STUDY DURATION: 16 MO), Route [Inhibitor]: ORAL, Species: MOUSE, Strain/Sex: C3H/HENCRJ/MALE, Target Tissue: Type of Lesion: LIVER: ADENOMA, Promoter: NONE USED): 17/43 (40%), 20/39 (51%), -28%, not calculated | tumour outcome (control, treated, inhibition, significance) (Carcinogen: NONE USED, Dose [Inhibitor]: 0, 0.1% IN DIET FOR DURATION OF STUDY (STUDY DURATION: 16 MO), Route [Inhibitor]: ORAL, Species: MOUSE, Strain/Sex: C3H/HENCRJ/MALE, Target Tissue: Type of Lesion: LIVER: CARCINOMA, Promoter: NONE USED): 11/43 (26%), 2/39 (5%), 81%, p<0.05

II
outcome (Carcinogen: N-METHYL-N-NITROSOUREA [684-93-5], Dose [Inhibitor]: 0.05% I2 IN DRINKING WATER, 2 WKS BEFORE CARCINOGEN AND FOR 26 WKS AFTER, Route [Inhibitor]: DRINKING WATER, Species: RAT, Strain/Sex: SPRAGUE-DAWLEY/FEMALE, Target Tissue: Type of Lesion: MAMMARY GLAND: CARCINOMA, Dose [Carcinogen]: 50 MG/KG BW ONCE AT 7 WKS OF AGE (IN SALINE SOLUTION)): 8/11 (73%) vs 3/10 (30%) at 16 wks, p<0.05 | outcome (Carcinogen: N-Methyl-N- nitrosourea (684-93-5), Dose [Inhibitor]: 0, 0.05% in drinking water for a total of 18 wks, Route [Inhibitor]: Oral, Species: Rat, Strain/Sex: Sprague-Dawley, female, Target Tissue: Type of Lesion: Mammary gland, Dose [Carcinogen]: 50 mg, study duration 16 wks after carcinogen): 100%, 62.5%, p<0.05

CC(C)c1cc2c(c(O)c1O)[C@@]13CCCC(C)(C)[C@@H]1C[C@@H]2OC3=O
tumour outcome (control, treated, inhibition, significance) (Carcinogen: 7,12-DIMETHYLBENZ[A]ANTHRACENE, 57-97-6, Dose [Inhibitor]: 0, 1 UMOL IN 200 µL ACETONE 2/WK FOR 20 WK BEGINNING 1 WK POST CARCINOGEN DOSE (STUDY DURATION: 20 WK), Route [Inhibitor]: DERMAL, Species: MOUSE, Strain/Sex: CD-1/FEMALE, Target Tissue: Type of Lesion: SKIN: TUMOR, Dose [Carcinogen]: 200 NMOL IN 200 µL ACETONE ONCE, Promoter: 12-O-TETRADECANOYLPHORBOL-13-ACETATE, 16561-29-8): 93%, 93%, 0%, not significant | tumour outcome (control, treated, inhibition, significance) (Carcinogen: 7,12-DIMETHYLBENZ[A]ANTHRACENE, 57-97-6, Dose [Inhibitor]: 0, 3 UMOL IN 200 µL ACETONE 2/WK FOR 20 WK BEGINNING 1 WK POST CARCINOGEN DOSE (STUDY DURATION: 20 WK), Route [Inhibitor]: DERMAL, Species: MOUSE, Strain/Sex: CD-1/FEMALE, Target Tissue: Type of Lesion: SKIN: TUMOR, Dose [Carcinogen]: 200 NMOL IN 200 µL ACETONE ONCE, Promoter: 12-O-TETRADECANOYLPHORBOL-13-ACETATE, 16561-29-8): 93%, 78%, 16%, not significant | tumour outcome (control, treated, inhibition, significance) (Carcinogen: 7,12-DIMETHYLBENZ[A]ANTHRACENE, 57-97-6, Dose [Inhibitor]: 0, 10 UMOL IN 200 µL ACETONE 2/WK FOR 20 WK BEGINNING 1 WK POST CARCINOGEN DOSE (STUDY DURATION: 20 WK), Route [Inhibitor]: DERMAL, Species: MOUSE, Strain/Sex: CD-1/FEMALE, Target Tissue: Type of Lesion: SKIN: TUMOR, Dose [Carcinogen]: 200 NMOL IN 200 µL ACETONE ONCE, Promoter: 12-O-TETRADECANOYLPHORBOL-13-ACETATE, 16561-29-8): 93%, 60%, 35%, not significant

CC(C)(Sc1cc(C(C)(C)C)c(O)c(C(C)(C)C)c1)Sc1cc(C(C)(C)C)c(O)c(C(C)(C)C)c1
tumour outcome (control, treated, inhibition, significance) (Carcinogen: BENZO[A]PYRENE, 50-32-8, Dose [Inhibitor]: 0, 0.06% IN DIET FOR DURATION OF STUDY BEGINNING 2 WK PRIOR TO CARCINOGEN DOSE (STUDY DURATION: 25 WK), Route [Inhibitor]: ORAL, Species: MOUSE, Strain/Sex: STRAIN-A/FEMALE, Target Tissue: Type of Lesion: FORESTOMACH: TUMOR, Dose [Carcinogen]: 1 MG IN 0.2 ML OLIVE OIL 2/WK FOR 4 WK, Promoter: NONE USED): 15/15 (100%), 13/13 (100%), 0%, not significant | tumour outcome (control, treated, inhibition, significance) (Carcinogen: BENZO[A]PYRENE, 50-32-8, Dose [Inhibitor]: 0, 0.06% IN DIET FOR DURATION OF STUDY BEGINNING 2 WK PRIOR TO CARCINOGEN DOSE (STUDY DURATION: 25 WK), Route [Inhibitor]: ORAL, Species: MOUSE, Strain/Sex: STRAIN-A/FEMALE, Target Tissue: Type of Lesion: LUNG: ADENOMA, Dose [Carcinogen]: 1 MG IN 0.2 ML OLIVE OIL 2/WK FOR 4 WK, Promoter: NONE USED): 15/15 (100%), 13/13 (100%), 0%, not significant | tumour outcome (control, treated, inhibition, significance) (Carcinogen: BENZO[A]PYRENE, 50-32-8, Dose [Inhibitor]: 0, 1% IN DIET FOR DURATION OF STUDY BEGINNING 2 WK PRIOR TO CARCINOGEN DOSE (STUDY DURATION: 25 WK), Route [Inhibitor]: ORAL, Species: MOUSE, Strain/Sex: STRAIN-A/FEMALE, Target Tissue: Type of Lesion: FORESTOMACH: TUMOR, Dose [Carcinogen]: 1 MG IN 0.2 ML OLIVE OIL 2/WK FOR 4 WK, Promoter: NONE USED): 15/15 (100%), 15/15 (100%), 0%, not significant | tumour outcome (control, treated, inhibition, significance) (Carcinogen: BENZO[A]PYRENE, 50-32-8, Dose [Inhibitor]: 0, 1% IN DIET FOR DURATION OF STUDY BEGINNING 2 WK PRIOR TO CARCINOGEN DOSE (STUDY DURATION: 25 WK), Route [Inhibitor]: ORAL, Species: MOUSE, Strain/Sex: STRAIN-A/FEMALE, Target Tissue: Type of Lesion: LUNG: ADENOMA, Dose [Carcinogen]: 1 MG IN 0.2 ML OLIVE OIL 2/WK FOR 4 WK, Promoter: NONE USED): 15/15 (100%), 15/15 (100%), 0%, not significant | outcome (Carcinogen: N,N-diethylnitrosamine, 55-18-5, Dose [Inhibitor]: 1% in diet through study, dose and study duration 24 wk, Route [Inhibitor]: Oral, Species: Mouse, Strain/Sex: ddy/Male, Target Tissue: Type of Lesion: Kidney, Dose [Carcinogen]: 100 mg/kg bw, Promoter: Ferric nitrilotriacetate, 16448-54-7): 14/20 (70%), 4/20 (20%)

C=CCSC
tumour outcome (control, treated, inhibition, significance) (Carcinogen: 7,12-DIMETHYLBENZ[A]ANTHRACENE, 57-97-6, Dose [Inhibitor]: 0, 1.8 MMOL/KG BW IN CORN OIL 96, 48 AND 24 HR PRIOR TO CARCINOGEN TREATMENT (STUDY DURATION: 25 WK), Route [Inhibitor]: GAVAGE, Species: RAT, Strain/Sex: SPRAGUE-DAWLEY/FEMALE, Target Tissue: Type of Lesion: MAMMARY GLAND: ADENOCARCINOMA, Dose [Carcinogen]: 10 MG ONCE, Promoter: NONE USED): 92%, 72%, 22%, p<0.05
